Data reported in paper PMC6253998, “Ring-substituted 4-Hydroxy-1H-quinolin-2-ones: Preparation and Biological Activity” (Molecules, 2009).
Converted amounts (≈) assume the structure as drawn. Where two headings read alike, the source gives them in different places.

Columns and labels:
eight fungal strains = test: In vitro antifungal screening, overall verdict; assay type: cell-based; conditions: especially against Candida albicans ATCC 44859
Method: (§1) The broth microdilution test was used for the assessment of in vitro antifungal activity of the synthesized compounds against Candida albicans ATCC 44859 (CA), Candida tropicalis 156 (CT), Candida krusei ATCC 6258 (CK), Candida glabrata 20/I (CG), Trichosporon beigelii 1188 (TB), Aspergillus fumigatus 231 (AF), Absidia corymbifera 272 (AC), and Trichophyton mentagrophytes 445 (TM). Fluconazole (FLU) was used as the standard of a clinically used antimycotic drug. The procedure was performed with twofold dilution of the compounds in RPMI 1640 (Sevapharma a.s., Prague, Czech Republic) buffered to pH 7.0 with 0.165 mol of 3-morpholino-propane-1-sulfonic acid (MOPS, Sigma, Germany). The final concentrations of the compounds ranged from 500 to 0.975 μmol/l. Drug–free controls were included. The MIC was defined as an 80% or greater (IC80) reduction of growth in comparison with the control. The values of MICs were determined after 24 and 48 h of static incubation at 35 °C. For T. mentagrophytes, the final MICs were determined after 72 and 120 h of incubation.

[1] = tested on: Candida albicans ATCC 44859; test: In vitro antifungal broth microdilution test; assay type: cell-based; conditions: RPMI 1640, pH 7.0, 35 °C; for MIC: Candida albicans, ATCC44859, read-out: MIC/IC80 CA
Method: (§2) Fluconazole (FLU) was used as the standard of a clinically used antimycotic drug. The procedure was performed with twofold dilution of the compounds in […]., Prague, Czech Republic) buffered to pH 7.0 with 0.165 mol of 3-morpholino-propane-1-sulfonic acid (MOPS, Sigma, Germany). […] Drug-free controls were included. The MIC was defined as an 80% or greater (IC80) reduction of growth in comparison with the control.

Candida glabrata 20/I = test: In vitro antifungal broth microdilution test; assay type: cell-based; conditions: for MIC/IC80 CG / MIC: RPMI 1640, pH 7.0, 35 °C; for MIC: Nakaseomyces glabratus, 20/I, read-out: MIC/IC80 CG
Method: as §2

[2] = tested on: Aspergillus fumigatus 231; test: In vitro antifungal broth microdilution test; assay type: cell-based; conditions: RPMI 1640, pH 7.0, 35 °C; for MIC: Aspergillus fumigatus, 231, read-out: MIC/IC80 AF
Method: as §2

Candida krusei ATCC 6258 = test: In vitro antifungal broth microdilution test; assay type: cell-based; conditions: RPMI 1640, pH 7.0, 35 °C; for MIC: Pichia kudriavzevii, ATCC6258, read-out: MIC/IC80 CK
Method: as §2

Absidia corymbifera 272 = test: In vitro antifungal broth microdilution test; assay type: cell-based; conditions: RPMI 1640, pH 7.0, 35 °C; for MIC: Lichtheimia corymbifera, 272, read-out: MIC/IC80 AC
Method: as §2

[3] = tested on: Trichophyton mentagrophytes 445; test: In vitro antifungal broth microdilution test; assay type: cell-based; conditions: for MIC/IC80 TM / MIC: RPMI 1640, pH 7.0, 35 °C; for MIC: Trichophyton mentagrophytes, 445, read-out: MIC/IC80 TM
Method: as §2

Candida tropicalis 156 = test: In vitro antifungal broth microdilution test; assay type: cell-based; conditions: RPMI 1640, pH 7.0, 35 °C; for MIC: Candida tropicalis, 156, read-out: MIC/IC80 CT
Method: as §2

spinach chloroplasts = test: Inhibition of oxygen evolution rate (OER) / photosynthetic electron transport in spinach chloroplasts; assay type: biochemical, Spinacia oleracea L.; conditions: DCPIP photoreduction, pH 7.2
Method: Chloroplasts were prepared from spinach (Spinacia oleracea L.) according to Masarovicova and Kralova. The inhibition of photosynthetic electron transport (PET) in spinach chloroplasts was determined spectrophotometrically (Genesys 6, Thermo Scientific, U.S.A.) using an artificial electron acceptor 2,6-dichlorophenol-indophenol (DCPIP) according to Kralova et al. and the rate of photosynthetic electron transport was monitored as a photoreduction of DCPIP. The measurements were carried out in phosphate buffer (0.02 mol/L, pH 7.2) containing sucrose (0.4 mol/L), MgCl2 (0.005 mol/L) and NaCl (0.015 mol/L). The chlorophyll content was 30 mg/L in these experiments and the samples were irradiated (~100 W/m^2) from 10 cm distance with a halogen lamp (250 W) using a 4 cm water filter to prevent warming of the samples (suspension temperature 22 °C). The studied compounds were dissolved in DMSO due to their limited water solubility. […] The inhibitory efficiency of the studied compounds was expressed by IC50 values, i.e. by molar concentration of the compounds causing 50% decrease in the oxygen evolution rate relative to the untreated control.

[4] = Lipophilicity HPLC determination (capacity factor k / log k); assay type: physicochemical; conditions: RP-HPLC, C18 column, MeOH 55.0% / H2O 45.0%, isocratic
Method: Hydrophobicities (log P/Clog P values) of the compounds 1-12 were calculated using two commercially available programs and also measured by means of the reversed phase high performance liquid chromatography (RP-HPLC) method for lipophilicity measurement. The procedure was performed under isocratic conditions with methanol as an organic modifier in the mobile phase using an end-capped non-polar C18 stationary RP column. The capacity factors k were determined and subsequent log k values were calculated.
The HPLC separation module Waters Alliance 2695 XE and Waters Photodiode Array Detector 2996 (Waters Corp., Milford, MA, U.S.A.) were used. A Symmetry® C18 5 μm, 4.6 × 250 mm, Part No. WAT054275, (Waters Corp., Milford, MA, U.S.A.) chromatographic column was used. The HPLC separation process was monitored by Millennium32® Chromatography Manager Software, Waters 2004 (Waters Corp., Milford, MA, U.S.A.). The mixture of MeOH p.a. (55.0%) and H2O-HPLC – Mili-Q Grade (45.0%) was used as a mobile phase. The total flow of the column was 0.9 mL/min, injection 30 μL, column temperature 30 °C and sample temperature 10 °C. The detection wavelength 210 nm was chosen. The KI methanolic solution was used for the dead time (TD) determination. Retention times (tR) were measured in minutes. The capacity factors k were calculated using the Millennium32® Chromatography Manager Software according to formula k = (tR - tD) / tD, where tR is the retention time of the solute, whereas tD denotes the dead time obtained via an unretained analyte. Log k, calculated from the capacity factor k, is used as the lipophilicity index converted to log P scale.

[5] = tested on: Trichosporon beigelii 1188; test: In vitro antifungal broth microdilution test; assay type: cell-based; conditions: RPMI 1640, pH 7.0, 35 °C; for MIC: Trichosporon beigelii, 1188, read-out: MIC/IC80 TB
Method: as §1

Row | Molecule | in vitro antifungal activity (in words) (eight fungal strains) | IC50 (spinach chloroplasts) | log k [4] | MIC ([1]; 24h) | MIC ([1]; 48h) | MIC (Candida glabrata 20/I; 24h) | MIC (Candida glabrata 20/I; 48h) | MIC ([2]; 24h) | MIC ([2]; 48h) | MIC (Candida krusei ATCC 6258; 24h) | MIC (Candida krusei ATCC 6258; 48h) | MIC (Absidia corymbifera 272; 24h) | MIC (Absidia corymbifera 272; 48h) | MIC ([3]; 72h) | MIC ([3]; 120h) | MIC (Candida tropicalis 156; 24h) | MIC (Candida tropicalis 156; 48h) | MIC ([5]; 24h) | MIC ([5]; 48h) | other results
1 | 3-(4-Carboxy-3-hydroxyphenylcarbamoyl)-4-hydroxy-2-oxo-1,2-dihydroquinoline-6-carboxylic acid [Compound 12] | only a moderate activity | 321 µM | 0.0093 |  |  |  |  |  |  |  |  |  |  |  |  |  |  |  |  | MIC/IC80 CA ([1]; 24h): 62.50 µM; MIC/IC80 CA ([1]; 48h): 125 µM; MIC/IC80 CG (Candida glabrata 20/I; 24h): 125 µM; MIC/IC80 CG (Candida glabrata 20/I; 48h): 250 µM; MIC/IC80 AF ([2]; 24h): 500 µM; MIC/IC80 AF ([2]; 48h): >500 µM; MIC/IC80 CK (Candida krusei ATCC 6258; 24h): >500 µM; MIC/IC80 CK (Candida krusei ATCC 6258; 48h): >500 µM; MIC/IC80 AC (Absidia corymbifera 272; 24h): 500 µM; MIC/IC80 AC (Absidia corymbifera 272; 48h): >500 µM; MIC/IC80 TM ([3]; 72h): 500 µM; MIC/IC80 TM ([3]; 120h): >500 µM; MIC/IC80 CT (Candida tropicalis 156; 24h): 500 µM; MIC/IC80 CT (Candida tropicalis 156; 48h): >500 µM; MIC/IC80 TB ([5]; 24h): 125 µM; MIC/IC80 TB ([5]; 48h): >500 µM
2 | O=C(O)c1cc2c(O)cc(=O)[nH]c2cc1O [Compound 4, 4,7-Dihydroxy-2-oxo-1,2-dihydroquinoline-6-carboxylic acid] | only a moderate activity | 538 µM | 0.0080 | 15.6 µM (≈ 3.45 µg/mL) | 62.5 µM (≈ 13.8 µg/mL) | 62.5 µM (≈ 13.8 µg/mL) | 250 µM (≈ 55.3 µg/mL) | 500 µM (≈ 111 µg/mL) | > 500 µM | > 500 µM | > 500 µM | > 500 µM | > 500 µM | > 500 µM | > 500 µM | 500 µM (≈ 111 µg/mL) | > 500 µM | 62.5 µM (≈ 13.8 µg/mL) | > 500 µM | antifungal activity against Candida glabrata 20/I (in words) (Candida glabrata 20/I): medium activity
3 | O=C(O)c1ccc2[nH]c(=O)c(/N=N/c3cc(Cl)c([N+](=O)[O-])cc3Cl)c(O)c2c1 [Compound 8, (E)-3-[(2,5-Dichloro-4-nitrophenyl)diazenyl]-4-hydroxy-2-oxo-1,2-dihydroquinoline-6-carboxylic acid] | only a moderate activity | 126 µM | 0.6394 | 31.2 µM (≈ 13.2 µg/mL) | 125 µM (≈ 52.9 µg/mL) | 250 µM (≈ 106 µg/mL) | > 250 µM | 125 µM (≈ 52.9 µg/mL) | 250 µM (≈ 106 µg/mL) | 250 µM (≈ 106 µg/mL) | 250 µM (≈ 106 µg/mL) | 62.5 µM (≈ 26.4 µg/mL) | 250 µM (≈ 106 µg/mL) | 62.5 µM (≈ 26.4 µg/mL) | 125 µM (≈ 52.9 µg/mL) | 250 µM (≈ 106 µg/mL) | > 250 µM | 250 µM (≈ 106 µg/mL) | > 250 µM | antifungal activity against Trichophyton mentagrophytes 445 (in words) [3]: medium activity
